Measured values reported in patent US8841456B2, “1,5-naphthyridine derivative or salt thereof” (FUJIFILM Corporation, priority 2011, dated 2014).
Read-outs that look alike come from different tables or passages of the source.

Key:
[1] = target: T1, human PI3Kα protein (Homo sapiens, UniProt P42336); assay: PI3Kα enzyme assay (ADP-Glo kinase assay); assay type: biochemical; details: 3 nM PI3Kα, 50 μM PIP2, 100 μM ATP
T1 construct: purchased Carna Biosciences, Inc; host or cells: Baculovirus expression system
Method: Evaluation of the PI3Kα inhibitory activity of the compound of the present invention was carried out according to the method as described below.
For the PI3Kα enzyme assay, biotinylated product of a human PI3Kα protein produced using a Baculovirus expression system (Carna Biosciences, Inc.) was used. Further, for the detection of the enzyme activity, an ADP-Glo kinase assay (PROMEGA Corporation) was used.
10 μL of a reaction solution (3 nM PI3Kα, 40 mM Tris-HCl, 20 mM MgCl2, 0.1% BSA, pH 7.5) including the human PI3Kα protein and a test compound at a predetermined concentration was incubated at room temperature for 15 minutes. Thereafter, 5 μL of a mixed solution of L-α-Phosphatidylinositol 4,5-diphosphate (PIP2) (SIGMA-ALDLICH) which was a substrate and ATP(SIGMA-ALDLICH) was added thereto to a final concentration of 50 μM and 100 μM, respectively, and the reaction solution was further incubated at 25° C. for 60 minutes to carry out an enzyme reaction.
After the reaction, 15 μL of an ADP-Glo reagent (PROMEGA Corporation) was added and the resulting liquid was incubated at room temperature for 60 minutes, whereby the enzyme reaction was stopped. Thereafter, after further adding 30 μL of a Kinase Detection Reagent (PROMEGA Corporation) and standing the resulting solution at room temperature for 40 minutes, ADP produced by the enzyme reaction was quantified by luminescence intensity.
For the measurement of luminescence intensity, EnVision (PerkinElmer, Inc.) was used.
(§1) The inhibitory activity of the compounds was evaluated using an IC50 (50% inhibitory concentration). The IC50 was calculated using XLfit (IDBS).

[2] = target: T2, glutathione S-transferase (GST)-fusion human ERK2 protein (Homo sapiens, UniProt P28482); assay: ERK2 enzyme assay (LabChip mobility shift); assay type: biochemical; details: 2 nM ERK2, 4.25 μM FL-Peptide 8, 43 μM ATP
T2 construct: purchased Carna Biosciences, Inc; host or cells: E. coli expression system
Method: Evaluation of the ERK2 inhibitory activity of the compound of the present invention was carried out according to the method as described below.
For the ERK2 enzyme assay, a glutathione S-transferase (GST)-fusion human ERK2 protein (Carna Biosciences, Inc.) produced using an E. coli expression system was used.
12 μL of the reaction solution (2 nM ERK2, 100 mM Hepes, 10 mM MgCl2, 1.5 mM DTT, 0.003% Brij35, pH 7.5) including the ERK2 protein and a test compound at a predetermined concentration was incubatedat room temperature for 15 minutes. Thereafter, 3 μL of a mixed solution of FL-Peptide 8 (5-FAM-IPTSPITTTYFFFKKK-COOH) (Caliper Lifescience) which was a substrate and ATP(SIGMA-ALDLICH) were added thereto to a final concentration of 4.25 μM and 43 μM, respectively. The reaction solution was further incubated at 25° C. for 120 minutes to carry out an enzyme reaction.
The enzyme reaction was stopped by adding 27 μL of a reaction-stopping solution (100 mM HEPES, 11.2 mM EDTA, 5.6% Brij35, pH 7.5) including a 0.5% Coating reagent 8 (PerkinElmer, Inc.) after the reaction. Thereafter, non-phosphorylated peptides and phosphorylated peptides were separated using LabChip Ez Reader (Caliper LifeScience, Inc.) to quantify the proportion of phosphorylated peptides.
as §1

[3] = IC50 class, read-out: PI3Kα Inhibitory Activity
[4] = IC50 class, read-out: ERK2 Inhibitory Activity

T2 sequence (P28482 whole entry, the tested form may be a part): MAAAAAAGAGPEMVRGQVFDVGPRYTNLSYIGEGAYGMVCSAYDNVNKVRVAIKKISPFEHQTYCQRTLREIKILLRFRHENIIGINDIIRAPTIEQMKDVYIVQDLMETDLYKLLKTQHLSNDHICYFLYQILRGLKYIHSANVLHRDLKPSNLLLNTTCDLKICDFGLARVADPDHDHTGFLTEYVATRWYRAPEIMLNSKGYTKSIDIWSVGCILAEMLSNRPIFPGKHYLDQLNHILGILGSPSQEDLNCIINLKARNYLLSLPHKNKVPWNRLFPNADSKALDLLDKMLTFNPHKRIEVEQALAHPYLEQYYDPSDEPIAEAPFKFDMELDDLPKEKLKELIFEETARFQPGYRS
T1 sequence (P42336 whole entry): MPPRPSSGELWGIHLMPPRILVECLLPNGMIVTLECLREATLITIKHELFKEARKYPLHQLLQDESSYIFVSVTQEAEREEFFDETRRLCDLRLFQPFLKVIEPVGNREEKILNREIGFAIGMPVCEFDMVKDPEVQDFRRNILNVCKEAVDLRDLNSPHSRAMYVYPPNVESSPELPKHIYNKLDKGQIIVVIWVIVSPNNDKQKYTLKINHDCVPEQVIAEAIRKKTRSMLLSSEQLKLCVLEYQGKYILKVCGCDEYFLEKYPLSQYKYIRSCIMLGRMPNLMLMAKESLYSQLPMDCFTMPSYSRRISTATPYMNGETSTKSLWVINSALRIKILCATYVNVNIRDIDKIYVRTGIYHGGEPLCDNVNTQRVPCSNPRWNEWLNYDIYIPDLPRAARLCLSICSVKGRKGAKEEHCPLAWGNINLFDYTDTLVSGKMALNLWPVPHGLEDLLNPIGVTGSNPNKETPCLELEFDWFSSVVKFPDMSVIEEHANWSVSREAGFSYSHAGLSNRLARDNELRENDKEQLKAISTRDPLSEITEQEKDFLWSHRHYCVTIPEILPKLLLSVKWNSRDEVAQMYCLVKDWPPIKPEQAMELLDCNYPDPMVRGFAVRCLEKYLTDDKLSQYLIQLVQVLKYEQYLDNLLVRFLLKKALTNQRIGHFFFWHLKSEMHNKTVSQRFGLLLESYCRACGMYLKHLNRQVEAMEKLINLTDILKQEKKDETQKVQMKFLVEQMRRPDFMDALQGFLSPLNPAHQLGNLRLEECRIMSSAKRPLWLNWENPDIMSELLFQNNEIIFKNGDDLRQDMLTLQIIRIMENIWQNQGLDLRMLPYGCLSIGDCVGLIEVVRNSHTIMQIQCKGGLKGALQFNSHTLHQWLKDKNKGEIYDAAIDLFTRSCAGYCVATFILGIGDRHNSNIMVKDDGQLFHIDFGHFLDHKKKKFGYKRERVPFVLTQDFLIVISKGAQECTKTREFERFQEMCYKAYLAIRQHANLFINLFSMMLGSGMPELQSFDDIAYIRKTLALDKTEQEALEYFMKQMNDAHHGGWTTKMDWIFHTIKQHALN
T1 sequence (P27986 whole entry partner): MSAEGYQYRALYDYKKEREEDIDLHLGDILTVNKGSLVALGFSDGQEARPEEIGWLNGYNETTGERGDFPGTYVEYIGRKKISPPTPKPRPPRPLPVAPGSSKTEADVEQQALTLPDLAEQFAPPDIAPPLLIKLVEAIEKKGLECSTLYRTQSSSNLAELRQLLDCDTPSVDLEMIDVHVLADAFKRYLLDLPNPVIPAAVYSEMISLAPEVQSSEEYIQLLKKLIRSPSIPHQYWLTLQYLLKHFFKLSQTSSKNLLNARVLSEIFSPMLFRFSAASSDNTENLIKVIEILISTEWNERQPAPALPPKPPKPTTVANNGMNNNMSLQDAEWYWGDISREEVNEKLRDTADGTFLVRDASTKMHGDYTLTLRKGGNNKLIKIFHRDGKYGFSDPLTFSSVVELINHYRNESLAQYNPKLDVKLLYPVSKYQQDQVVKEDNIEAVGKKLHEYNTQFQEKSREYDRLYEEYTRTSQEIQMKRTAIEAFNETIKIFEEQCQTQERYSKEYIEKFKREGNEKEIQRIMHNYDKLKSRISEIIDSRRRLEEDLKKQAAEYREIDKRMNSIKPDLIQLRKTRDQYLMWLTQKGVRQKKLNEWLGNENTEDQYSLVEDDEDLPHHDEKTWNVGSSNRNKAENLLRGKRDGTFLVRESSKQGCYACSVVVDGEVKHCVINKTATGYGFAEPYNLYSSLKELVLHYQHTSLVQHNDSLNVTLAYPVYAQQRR

Row | Compound | IC50 [1, 3] [nM] | IC50 [2, 4] [nM] | IC50 ([1]; read-out: PI3Kα, IC50) [nM] | IC50 ([2]; read-out: ERK2, IC50) [nM]
1 | O=C(Nc1ccc2ncc(-c3cnc4ccccc4c3)cc2n1)NC1CCCC1 [Compound 0121] | 1000 to 10000 | 1000 to 10000 |  | 
2 | CC(=O)OCCCCn1cc(-c2cnc3ccc(NC(=O)NC4CCCC4)nc3c2)cn1 [Compound 0249] | < 100 | < 100 |  | 
3 | CC(C)(C)OC(=O)N1CC[C@@H](NC(=O)Nc2ccc3ncc(-c4cn[nH]c4)cc3n2)C1 [Compound 0070] | 100 to 1000 | < 100 |  | 
4 | O=C(Nc1ccc2ncc(-c3c[nH]nc3C(F)(F)F)cc2n1)NC1CCCC1 [Compound 0124] | < 100 | < 100 |  | 
5 | O=C(Nc1ccc2ncc(-c3cn[nH]c3)cc2n1)NC1C[C@H]2CC[C@@H]1C2 (some centres unmarked) [Compound 0068] | < 100 | < 100 | 30 | 4
6 | COc1cccc(CCCCNC(=O)Nc2ccc3ncc(-c4cn[nH]c4)cc3n2)c1 [Compound 0169] | 100 to 1000 | < 100 |  | 
7 | Cc1n[nH]c(C)c1-c1cnc2ccc(NC(=O)NC3CCCC3)nc2c1 [Compound 0049] | < 100 | < 100 |  | 
8 | O=C(Nc1ccc2ncc(-c3cnn(CCCN4CCOCC4)c3)cc2n1)N[C@H]1CCN(Cc2ccccc2)C1 [Compound 0176] | 100 to 1000 | 100 to 1000 |  | 
9 | COc1ccc(-c2cnc3ccc(NC(=O)NC4CCCC4)nc3c2)cc1OC [Compound 0002] | < 100 | < 100 | 84 | 42
10 | O=C(NCCCCc1ccccc1F)Nc1ccc2ncc(-c3cn[nH]c3)cc2n1 [Compound 0171] | < 100 | < 100 |  | 
11 | O=C(Nc1ccc2ncc(-c3cnc4[nH]ccc4c3)cc2n1)NC1CCCC1 [Compound 0123] | 100 to 1000 | 1000 to 10000 |  | 
12 | O=C(NCc1ccccc1)Nc1ccc2ncc(-c3cn[nH]c3)cc2n1 [Compound 0060] | 100 to 1000 | < 100 |  | 
13 | O=C(Nc1ccc2ncc(-c3cnn(C4CNC4)c3)cc2n1)NC1CCCC1 [Compound 0143] | < 100 | 100 to 1000 |  | 
14 | Cn1cncc1-c1cnc2ccc(NC(=O)NC3CCCC3)nc2c1 [Compound 0238] | 100 to 1000 | < 100 |  | 
15 | C[C@H](NC(=O)Nc1ccc2ncc(-c3cn[nH]c3)cc2n1)C1CCCCC1 [Compound 0079] | < 100 | < 100 |  | 
16 | O=C(NCCCCc1ccc(F)cc1)Nc1ccc2ncc(-c3cn[nH]c3)cc2n1 [Compound 0172] | 100 to 1000 | < 100 |  | 
17 | CC(C)N1CCC(n2cc(-c3cnc4ccc(NC(=O)NC5CCCC5)nc4c3)cn2)CC1 [Compound 0231] | < 100 | 100 to 1000 |  | 
18 | O=C(NCC1CCOCC1)Nc1ccc2ncc(-c3cn[nH]c3)cc2n1 [Compound 0191] | 100 to 1000 | < 100 |  | 
19 | O=C(Nc1ccc2ncc(-c3ccsc3)cc2n1)NC1CCCC1 [Compound 0118] | 100 to 1000 | < 100 |  | 
20 | O=C(NCCCCc1ccccc1)Nc1ccc2ncc(-c3cnn(CCCN4CCOCC4)c3)cc2n1 [Compound 0203] | < 100 | < 100 |  | 
21 | O=C(NCCCCc1ccccc1)Nc1ccc2ncc(Nc3cn[nH]c3)cc2n1 [Compound 0250] | < 100 | < 100 |  | 
22 | O=C(Nc1ccc2ncc(N3CCN(c4ccccc4)CC3)cc2n1)NC1CCCC1 [Compound 0153] | 100 to 1000 | > 10000 |  | 
23 | C[C@@H](NC(=O)Nc1ccc2ncc(-c3cn[nH]c3)cc2n1)c1ccccc1 [Compound 0139] | 100 to 1000 | < 100 |  | 
24 | COc1ccccc1CCCCNC(=O)Nc1ccc2ncc(-c3cn[nH]c3)cc2n1 [Compound 0168] | < 100 | < 100 |  | 
25 | O=C(Nc1ccc2ncc(-c3cn[nH]c3)cc2n1)NC1CCOC1 (centres unmarked) [Compound 0075] | 100 to 1000 | < 100 |  | 
26 | Cn1cc(-c2cc3nc(NC(=O)NC4CCCC4)ccc3nc2Cl)cn1 [Compound 0225] | > 10000 | > 10000 |  | 
